Results reported in patent US20210038579A1, “Treatment Of Patients With Classic Fabry Disease” (Amicus Therapeutics, Inc., priority 2018, published 2021).
Positions count from the first letter of the chain named.

What was measured:
Assay in all cases: HEK assay: α-Gal A activity in HEK-293 cell lysate with migalastat
Format in all cases: cell-based
[1] = molecular target: T1, α-Gal A mutant form p.Gly258Arg (c.772 G > C) (Homo sapiens, UniProt P06280, G258R)
T1 construct: expressed in transfected cells; host or cells: HEK-293
T1 sequence (P06280 32-429 G258R): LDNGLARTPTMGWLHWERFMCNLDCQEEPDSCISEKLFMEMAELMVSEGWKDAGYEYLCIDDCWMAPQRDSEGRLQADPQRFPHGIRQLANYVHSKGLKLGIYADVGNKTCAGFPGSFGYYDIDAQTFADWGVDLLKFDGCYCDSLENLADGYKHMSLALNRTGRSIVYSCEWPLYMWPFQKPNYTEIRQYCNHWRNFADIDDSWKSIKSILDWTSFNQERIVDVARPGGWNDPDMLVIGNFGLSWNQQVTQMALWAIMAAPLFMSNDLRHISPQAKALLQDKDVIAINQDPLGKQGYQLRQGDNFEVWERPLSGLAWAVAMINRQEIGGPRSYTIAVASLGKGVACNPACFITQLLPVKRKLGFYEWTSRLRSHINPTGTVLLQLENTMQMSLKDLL
Procedure, shortened: (§1)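 Each disease-causing α-Gal A variant, expressed transiently in HEK-293 cells, was treated plus or minus migalastat from 17 nM up to 1 mM during 4 to 5 days; lysates were assayed for α-Gal A using 4-MU-α-Gal fluorescence or western blotting.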

[2] = molecular target: T2, α-Gal A mutant form p.Met187Ile (c.561 G > A) (Homo sapiens, UniProt P06280, M187I)
T2 construct: expressed in transfected cells; host or cells: HEK-293
T2 sequence (P06280 32-429 M187I): T1 sequence (P06280 32-429 G258R) with M156I, R227G
Procedure, shortened: as §1

[3] = molecular target: T3, α-Gal A mutant form p.Tyr216Cys (c.647 A > G) (Homo sapiens, UniProt P06280, Y216C)
T3 construct: expressed in transfected cells; host or cells: HEK-293
T3 sequence (P06280 32-429 Y216C): T1 sequence (P06280 32-429 G258R) with Y185C, R227G
Procedure, shortened: as §1

[4] = molecular target: T4, α-Gal A mutant form p.Met284Thr (c.851 T > C) (Homo sapiens, UniProt P06280, M284T)
T4 construct: expressed in transfected cells; host or cells: HEK-293
T4 sequence (P06280 32-429 M284T): T1 sequence (P06280 32-429 G258R) with R227G, M253T
Procedure, shortened: as §1

[5] = molecular target: T5, α-Gal A mutant form p.Asp244Asn (c.730 G > A) (Homo sapiens, UniProt P06280, D244N)
T5 construct: expressed in transfected cells; host or cells: HEK-293
T5 sequence (P06280 32-429 D244N): T1 sequence (P06280 32-429 G258R) with D213N, R227G
Procedure, shortened: as §1

[6] = +10 μM migalastat, HEK-293 cell lysate, mean ± SEM, n = 20
[7] = HEK293, 10 μM migalastat minus baseline, read-out: Absolute increase at 10 μM (% WT)

OC[C@H]1NC[C@H](O)[C@@H](O)[C@H]1O [migalastat]
α-Gal A activity at 10 μM (fold over baseline) ([1]; 10 μM migalastat): 2.37 fold over baseline | +Migalastat α-Gal A activity [1, 6]: 22630 ± 801 nmol/mg/h | +Migalastat α-Gal A activity % WT [1, 6]: 78.1 ± 5.8 % WT | activation at 10 µM [1, 7]: 45.5% | α-Gal A activity at 10 μM (fold over baseline) ([2]; 10 μM migalastat): 6.10 fold over baseline | +Migalastat α-Gal A activity [2, 6]: 10824 ± 555 nmol/mg/h | +Migalastat α-Gal A activity % WT [2, 6]: 30.7 ± 1.1 % WT | activation at 10 µM [2, 7]: 25.6% | α-Gal A activity at 10 μM (fold over baseline) ([3]; 10 μM migalastat): 10.40 fold over baseline | +Migalastat α-Gal A activity [3, 6]: 7003 ± 305 nmol/mg/h | +Migalastat α-Gal A activity % WT [3, 6]: 20.7 ± 0.8 % WT | activation at 10 µM [3, 7]: 18.7% | α-Gal A activity at 10 μM (fold over baseline) ([4]; 10 μM migalastat): 8.33 fold over baseline | +Migalastat α-Gal A activity [4, 6]: 5050 ± 268 nmol/mg/h | +Migalastat α-Gal A activity % WT [4, 6]: 14.3 ± 0.6 % WT | activation at 10 µM [4, 7]: 12.6% | α-Gal A activity at 10 μM (fold over baseline) ([5]; 10 μM migalastat): 1.58 fold over baseline | +Migalastat α-Gal A activity [5, 6]: 16321 ± 402 nmol/mg/h | +Migalastat α-Gal A activity % WT [5, 6]: 48.7 ± 1.7 % WT | activation at 10 µM [5, 7]: 17.8%
